# According to patent US5585492A, “LTA4 Hydrolase inhibitors” (priority 1994, dated 1996):
# Where two headings read alike, the source gives them in different places.
# Tests used:
# [1] = target: T1, recombinant human LTA4 hydrolase (Homo sapiens, UniProt P09960); test: Recombinant Human LTA4 Hydrolase Assay for LTA4 Hydrolase Inhibitor Activity (LTB4 by enzyme-linked immunoassay); assay type: biochemical; settings: for IC50: read-out: Recombinant Human LTA4 Hydrolase Assay IC50 LTA4H
# T1 construct: made in house; host or cells: Spodoptera frugiperda Sf-9 cells, baculovirus (AcNPV) expression vector
# T1 sequence (P09960 1-611): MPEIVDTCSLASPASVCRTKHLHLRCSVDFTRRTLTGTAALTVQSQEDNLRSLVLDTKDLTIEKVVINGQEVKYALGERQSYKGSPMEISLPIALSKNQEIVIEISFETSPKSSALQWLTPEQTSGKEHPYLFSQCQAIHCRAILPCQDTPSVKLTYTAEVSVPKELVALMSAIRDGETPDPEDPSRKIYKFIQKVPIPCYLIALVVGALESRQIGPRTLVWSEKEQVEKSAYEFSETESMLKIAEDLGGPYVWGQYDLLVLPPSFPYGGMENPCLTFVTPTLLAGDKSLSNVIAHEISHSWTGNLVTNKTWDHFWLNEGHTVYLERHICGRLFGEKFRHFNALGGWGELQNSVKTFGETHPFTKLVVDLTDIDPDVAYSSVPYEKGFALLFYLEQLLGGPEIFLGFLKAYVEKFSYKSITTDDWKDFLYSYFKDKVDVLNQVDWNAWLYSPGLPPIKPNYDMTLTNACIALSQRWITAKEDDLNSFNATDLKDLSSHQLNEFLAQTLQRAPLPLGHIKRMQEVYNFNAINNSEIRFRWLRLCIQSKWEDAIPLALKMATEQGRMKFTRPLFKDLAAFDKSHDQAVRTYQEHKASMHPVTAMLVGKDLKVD
# Description: Compounds of the present invention were tested for LTA4 hydrolase inhibitor activity against recombinant human LTA4 hydrolase (rhLTA4 H). […] Briefly, LTA4 hydrolase encoding DNA was amplified by polymerase chain reaction using a pair of oligonucleotide primers based on the nucleotide sequence from the 5'-end, and the complement of the 3'-end, of the coding region of the LTA4 hydrolase gene, the nucleotide sequence of which gene is known. […] A λgtll human placental cDNA library (Clonetech, Palo Alto, Calif.) provided the nucleic acid template.
# One or more predetermined amounts of a compound of the invention were incubated in assay buffer (0.1M potassium phosphate, 5 mg/ml fatty acid free BSA, 10% DMSO, pH 7.4) for 10 minutes at room temperature with 250 ng of recombinant hLT4 H to allow binding, if any, between the enzyme and inhibitor. The stock enzyme solution was 1 mg/ml LTA4 hydrolase, 50 mM Tris, pH 8.0, 150 mM NaCl, 2.5 mM beta-mercaptoethanol, 50% glycerol. […] LTA4 (i.e., substrate) was prepared from the methyl ester of LTA4 (Biomol, Inc., Plymouth Meeting, Pa.) by treating the methyl ester with 30 molar equivalents of LiOH at room temperature for 18 hours. The LTA4 substrate in its free acid form was kept frozen at -80° C. until needed. […] Each reaction was carried out at room temperature for 10 minutes. The reaction was stopped by diluting 25 μl of the reaction mixture with 500 μl of the assay buffer without DMSO. LTB4 was quantified in the diluted sample by a commercially available enzyme-linked immunoassay [Caymen Chemical Co., Ann Arbor, Mich.] using the method recommended in the manufacturer's instructions and compared to the amount of LTB4 produced in a negative control (i.e., essentially identical conditions except without addition of an inhibitor compound). The IC50 was routinely calculated from the data produced.
# [2] = tested on: LTB4 production in human blood; test: Inhibition of Calcium Ionophore-Induced LTB4 Production in Human Blood (HWB); assay type: cell-based; settings: Homo sapiens, read-out: Inhibition of Calcium Ionophore-Induced LTB4 Production in Human Blood IC50 HWB
# [3] = tested on: LTB4 production in mouse blood; test: Murine Ex Vivo LTB4 Inhibition, calcium ionophore stimulated mouse blood after oral gavage; assay type: in vivo
# Description: Leukotriene A4 hydrolass inhibitor compounds of the present invention were diluted to a predetermined concentration in phosphate buffered saline containing 2% DMSO and 1% Tween 80. The compounds were administered by oral gavage to adult male outbred mice weighing approximately 20-30 gm at a dose of 10 mg/kg body weight. (Compounds given at a dose of 50 mg/kg body weight are designtated in following Table by the symbol, *.) Sixty (60) minutes after administration of an LTA4 inhibitor compound of the invention, blood was collected (into heparin-containing tubes) from the retroorbital sinus. […] The mixture was incubated for 10 minutes at 37° C. in a humidified incubator. The reaction was terminated by centrifugation (833 g, 10 minutes at 4° C.). Supernatants were analyzed for LTB4 and thromboxane by commercially available enzyme-linked immunoassays [Caymen Chemical Co., Ann Arbor, Mich.] in accordance with the manufacturer's instructions. The percent inhibition was determined by comparison to animals treated identically except that the solution admininstered by oral gavage was devoid of inhibitor compound.
# LTA4 hydrolase = settings: cited from earlier work
# [4] = human whole blood, A23187 20 mcg/ml
IC50 [1],"IC50 [2, 4]",Structure (SMILES),"Murine Ex Vivo LTB4 Inhibition % I LTB4 at 1 hour after administration of 10 mg/kg ([3]; oral gavage, 10 mg/kg, 1 hour)",also measured
–,0.147 µM,CCOC(=O)C1CCN(CCOc2ccc(Cc3ccccc3)cc2)CC1 [Example 245],97%,–
0.007 µM,–,c1ccc(Cc2ccc(OCCN3CCCC3)nc2)cc1 [Example 112],–,"Murine Ex Vivo LTB4 Inhibition % I LTB4 at 1 hour after administration of 50 mg/kg (*) ([3]; in vivo, po): 82%"
0.52 µM,0.546 µM,CC(=O)N1CCN(CCOc2ccc(Cc3ccccc3)cc2)CC1 [Example 277],42%,–
–,0.64 µM,c1ccc(Cc2ccc3c(c2)CC(Cn2cnc4cnccc42)O3)cc1 (centres unmarked) [Example 358B],33%,–
5.07 µM,3.35 µM,Nc1ccc2c(c1)ncn2CCOc1ccc(Cc2ccccc2)cc1 [Example 362A],28%,–
0.132 µM,0.608 µM,NC(=O)C1CCN(CCOc2ccc(Cc3ccccc3)cc2)CC1 [Example 242],95%,–
0.069 µM,–,c1csc(Cc2ccc(OCCN3CCCC3)cc2)n1 [Example 121],48%,–
0.015 µM,–,COC(=O)CC1CC2CC1CN2CCOc1ccc(Cc2ccccc2)cc1 (centres unmarked) [Example 304],–,"Murine Ex Vivo LTB4 Inhibition % I LTB4 at 1 hour after administration of 10 mg/kg ([3]; in vivo, po): 80%"
–,1.65 µM,Clc1cccc(COc2ccc(OCCN3CCCC3)cc2)c1 [Example 206],0%,–
0.077 µM,–,c1ncc(Cc2ccc(OCCN3CCCC3)cc2)s1 [Example 122],57%,–
0.39 µM,0.146 µM,COC(=O)CC1CCN(CCOc2ccc(Cc3ccccc3)cc2)C1 (centres unmarked) [Example 275],75%,–
–,0.59 µM,c1ccc(Cc2ccc3c(c2)CC(Cn2ccc4ncnc-4c2)O3)cc1 (centres unmarked) [Example 358C],13%,–
0.087 µM,–,c1cncc(Cc2ccc(OCCN3CCCC3)cc2)c1 [Example 125],46%,–
0.073 µM,0.26 µM,Cn1c(=O)c2c(ncn2CCOc2ccc(Cc3ccccc3)cc2)n(C)c1=O [Example 353],0%,–
–,0.33 µM,c1ccc(Cc2ccc(OCCn3cnc4cnccc43)cc2)cc1 [Example 340B],64%,–
0.008 µM,0.33 µM,c1ccc(Cc2ccc(OCCn3cnc4ncccc43)cc2)cc1 [Example 338B],–,"Murine Ex Vivo LTB4 Inhibition % I LTB4 at 1 hour after administration of 50 mg/kg (*) ([3]; oral gavage, 50 mg/kg (*), 1 hour): 92%"
0.24 µM,–,c1ccc(Cc2ccc(OCCN3CCC(c4nnn[nH]4)CC3)cc2)cc1 [Example 450],91%,–
–,7.98 µM,CC(C)(C)OC(=O)CCNCCCOc1ccc(Cc2ccccc2)cc1 [Example 268],–,inhibition at 3 µM [1]: 53%

# More lines, now with the values behind:
Structure (SMILES),IC50 [1],"IC50 [2, 4]","Murine Ex Vivo LTB4 Inhibition % I LTB4 at 1 hour after administration of 10 mg/kg ([3]; oral gavage, 10 mg/kg, 1 hour)",also measured
CCOC(=O)CNCCCCOc1ccc(Cc2ccccc2)cc1 [Example 320],0.014 µM,0.354 µM,85%,–
FC(F)(c1ccccc1)c1ccc(OCCN2CCCC2)cc1 [Example 67],0.011 µM,–,0%,–
c1ccc(Cc2ccc(OCCn3cccc4ncnc3-4)cc2)cc1 [Example 338A],0.14 µM,–,22%,IC50 [2]: 0.69 µM
c1ccc(Cc2ccc(OCCn3cnc4ncncc43)cc2)cc1 [Example 357A],–,–,57%,–
C[C@H](CS)C(=O)N1CCC[C@H]1C(=O)O [captopril],–,–,–,LTA4 hydrolase inhibitory activity (in words) (LTA4 hydrolase): exhibit LTA4 hydrolase inhibitory activity
CCOC(=O)CNCCCCCOc1ccc(Cc2ccccc2)cc1 [Example 321],0.25 µM,0.421 µM,87%,–
CNC(=O)C1CCN(CCOc2ccc(Cc3ccccc3)cc2)CC1 [Example 420],0.057 µM,0.133 µM,93%,–
COC(=O)C1CC2CCC(C1)N2CCOc1ccc(Cc2ccccc2)cc1 (centres unmarked) [Example 278],0.022 µM,–,95%,IC50 [2]: 0.247 µM
COC(=O)C1CC2CCC(C1)N2CC1Cc2cc(Cc3ccccc3)ccc2O1 (centres unmarked) [Example 283],–,–,90%,IC50 [2]: 0.09 µM
CN(CCCOc1ccc(Cc2ccc(F)cc2)cc1)CCC(=O)O [Example 336],0.031 µM,0.187 µM,99%,–
Fc1cc(OCCN2CCCC2)ccc1Cc1ccccc1 [Example 116],0.053 µM,1.09 µM,18%,–
COC(=O)CCN(C)CCCOc1ccc(Cc2ccccc2)s1 [Example 375],–,0.24 µM,67%,–
CC1CCCC(C)N1CCOc1ccc(Cc2ccccc2)cc1 (centres unmarked) [Example 402],–,–,58%,–
"c1ccc(Oc2ccc(OCCN3CCCC3)cc2)cc1 [Example 44, 1-[2-(4-phenoxyphenoxy)ethyl]pyrrolidine]",0.03 µM,–,25%,–
CCOC(=O)C1CCN(CCOc2ccc(Cc3ccccc3)s2)CC1 [Example 370],–,0.68 µM,96%,–
NC(=O)N1CCN(CCOc2ccc(Cc3ccccc3)cc2)CC1 [Example 459],1.11 µM,2.4 µM,44%,–
O=C(O)C1CCN(CCOc2ccc(Cc3ccccc3)cc2)CC1 [Example 429],–,0.288 µM,80%,–
[O-][n+]1ccc2c(c1)ncn2CCOc1ccc(Cc2ccccc2)cc1 [Example 365],–,–,72%,–
CCOC(=O)CCNCCCCOc1ccc(Cc2ccccc2)cc1 [Example 272],0.007 µM,0.076 µM,97%,–
COC(=O)CCN(C)CCCOc1ccc(Cc2ccsc2)cc1 [Example 330],–,0.09 µM,95%,–
c1nc(Cc2ccc(OCCN3CCCC3)cc2)cs1 [Example 49],0.19 µM,–,46%,–
c1ccc(Cc2ccc(OCCN3CCCC3)cc2)cc1 [Example 45],0.026 µM,–,35%,IC50 [2]: 0.116 µM
